Data: US11000033B2, “Ketone or oxime compound, and herbicide” (NISSAN CHEMICAL CORPORATION, priority 2014, dated 2021)

Experiments:
Format in all cases: in vivo
[1] = test system: Abutilon theophrasti; assay: Test Example 4: herbicidal effect by soil treatment (symbol M); conditions: application herbicide amount 320 g/ha
Outline: (§1)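 Seeds were sown in sterilized diluvial soil, covered with about 1.5 cm of soil, and the soil surface was sprayed with a water-diluted emulsion of the compound at a predetermined rate. Plants grew in a greenhouse at 25° C. to 30° C.; effects were scored visually 3 weeks after application.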

[2] = test system: Echinochloa crus-galli var. crus-galli; assay: Test Example 5: herbicidal effect by foliage application, plastic box (symbol H); conditions: 320 g/ha, 3 weeks after application
Outline: (§2)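 Greenhouse foliar test: seedlings at 14 days, grown 25° C. to 30° C. in sterilized diluvial soil; compound applied as an aqueous dilution of an emulsion; response read 3 weeks after spraying.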

[3] = test system: Scirpus juncoides; assay: Test Example 1: herbicidal activity, application before weed generation in submerged conditions (symbol B); conditions: application herbicide amount 320 g/ha
Outline: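 In a flooded pot test with alluvial soil, the emulsion-formulated compound was diluted with water to a predetermined amount and applied to the floodwater immediately on the sowing day. Pots were held in a greenhouse at 25–30 °C for 3 weeks before each weed was rated.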

[4] = test system: Amaranthus retroflexus; assay: Test Example 5: herbicidal effect by foliage application, plastic box (symbol N); conditions: 320 g/ha, 3 weeks after application
Outline: as §2

[5] = test system: soybean; assay: Test Example 4: effect on crop by soil treatment (symbol d); conditions: application herbicide amount 320 g/ha
Outline: (§3)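 Crop seed is sown in spots together with several weed species in a box of sterilized diluvial soil. It is covered by about 1.5 cm of soil and kept in a greenhouse held between 25° C. and 30° C.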

[6] = test system: Galium spurium; assay: Test Example 4: herbicidal effect by soil treatment (symbol Q); conditions: application herbicide amount 320 g/ha
Outline: as §1

[7] = test system: soybean; assay: Test Example 5: effect on crop by foliage application, plastic box (symbol d); conditions: 320 g/ha, 3 weeks after application
Outline: (§4)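 Crop seed is sown alongside grass and broadleaf weed species in spots in sterilized diluvial soil, then covered to a depth of about 1.5 cm. Plants grow in a greenhouse kept at 25° C. to 30° C.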

[8] = test system: Lolium multiflorum Lam.; assay: Test Example 4: herbicidal effect by soil treatment (symbol K); conditions: application herbicide amount 320 g/ha
Outline: as §1

[9] = test system: rice plant; assay: Test Example 5: effect on crop by foliage application, plastic box (symbol b); conditions: 320 g/ha, 3 weeks after application
Outline: as §4

[10] = test system: wheat; assay: Test Example 5: effect on crop by foliage application, plastic box (symbol e); conditions: 320 g/ha, 3 weeks after application
Outline: as §4

[11] = test system: Galium spurium; assay: Test Example 5: herbicidal effect by foliage application, plastic box (symbol Q); conditions: 320 g/ha, 3 weeks after application
Outline: as §2

[12] = test system: corn; assay: Test Example 4: effect on crop by soil treatment (symbol c); conditions: application herbicide amount 320 g/ha
Outline: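 Soil-treatment setup: crop and weed seeds were spot-sown into sterilized diluvial soil, then buried beneath approximately 1.5 cm of it, and the boxes were housed in a 25–30° C. greenhouse.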

[13] = test system: wheat; assay: Test Example 4: effect on crop by soil treatment (symbol e); conditions: application herbicide amount 320 g/ha
Outline: as §3

[14] = test system: Stellaria media; assay: Test Example 4: herbicidal effect by soil treatment (symbol P); conditions: application herbicide amount 320 g/ha
Outline: as §1

[15] = test system: rice; assay: Test Example 4: effect on crop by soil treatment (symbol b); conditions: application herbicide amount 320 g/ha
Outline: as §3

[16] = test system: Avena fatua; assay: Test Example 4: herbicidal effect by soil treatment (symbol I); conditions: application herbicide amount 320 g/ha
Outline: as §1

[17] = test system: Alopecurus myosuroides; assay: Test Example 4: herbicidal effect by soil treatment (symbol J); conditions: application herbicide amount 320 g/ha
Outline: as §1

[18] = test system: Alopecurus myosuroides; assay: Test Example 5: herbicidal effect by foliage application, plastic box (symbol J); conditions: 320 g/ha, 3 weeks after application
Outline: as §2

[19] = test system: Amaranthus retroflexus; assay: Test Example 4: herbicidal effect by soil treatment (symbol N); conditions: application herbicide amount 320 g/ha
Outline: as §1

[20] = test system: Setaria viridis; assay: Test Example 5: herbicidal effect by foliage application, plastic box (symbol G); conditions: 320 g/ha, 3 weeks after application
Outline: as §2

[21] = test system: Digitaria ciliaris; assay: Test Example 5: herbicidal effect by foliage application, plastic box (symbol F); conditions: 320 g/ha, 3 weeks after application
Outline: as §2

[22] = test system: Setaria viridis; assay: Test Example 4: herbicidal effect by soil treatment (symbol G); conditions: application herbicide amount 320 g/ha
Outline: as §1

SMILES | H: Echinochloa crus-galli var. crus-galli, herbicidal effect grade [2] | Herbicidal effect grade, B: Scirpus juncoides [3] | N: Amaranthus retroflexus, herbicidal effect grade [4] | d: soybean, effect on crop grade [7] | b: directly sowed rice plant, effect on crop grade [9] | e: wheat, effect on crop grade [10] | Q: Galium spurium, herbicidal effect grade [11] | J: Alopecurus myosuroides, herbicidal effect grade [18] | G: Setaria viridis, herbicidal effect grade [20] | F: Digitaria ciliaris, herbicidal effect grade [21] | M: Abutilon theophrasti, herbicidal effect grade [1] | d: soybean, effect on crop grade [5] | Q: Galium spurium, herbicidal effect grade [6] | K: Lolium multiflorum Lam., herbicidal effect grade [8] | c: corn, effect on crop grade [12] | e: wheat, effect on crop grade [13] | P: Stellaria media, herbicidal effect grade [14] | b: directly sowed rice plant, effect on crop grade [15] | I: Avena fatua, herbicidal effect grade [16] | J: Alopecurus myosuroides, herbicidal effect grade [17] | also measured
COC(=O)CON=C(C)CC1CC(O)=C(c2c(C)cc(C)cc2C)C1=O (stereo not drawn) [1-023] | 4 (Herbicidal ratio of 70% or higher and lower than 90%) | 0 (Herbicidal ratio of 5% or lower (almost no effect)) | 0 (Herbicidal ratio of 5% or lower (almost no effect)) | 0 (Herbicidal ratio of 5% or lower (almost no effect)) | 4 (Herbicidal ratio of 70% or higher and lower than 90%) | 0 (Herbicidal ratio of 5% or lower (almost no effect)) | 2 (Herbicidal ratio of 20% or higher and lower than 40%) | 4 (Herbicidal ratio of 70% or higher and lower than 90%) | 1 (Herbicidal ratio of 5% or higher and lower than 20%) | 2 (Herbicidal ratio of 20% or higher and lower than 40%) | – | – | – | – | – | – | – | – | – | – | M (Abutilon theophrasti) herbicidal effect grade [1]: 0 (Herbicidal ratio of 5% or lower (almost no effect)); d (soybean) effect on crop grade [5]: 0 (Herbicidal ratio of 5% or lower (almost no effect)); Q (Galium spurium) herbicidal effect grade [6]: 0 (Herbicidal ratio of 5% or lower (almost no effect)); K (Lolium multiflorum Lam.) herbicidal effect grade [8]: 3 (Herbicidal ratio of 40% or higher and lower than 70%); c (corn) effect on crop grade [12]: 0 (Herbicidal ratio of 5% or lower (almost no effect)); e (wheat) effect on crop grade [13]: 0 (Herbicidal ratio of 5% or lower (almost no effect)); P (Stellaria media) herbicidal effect grade [14]: 0 (Herbicidal ratio of 5% or lower (almost no effect)); b (directly sowed rice plant) effect on crop grade [15]: 5 (Herbicidal ratio of 90% or more (almost completely withered)); I (Avena fatua) herbicidal effect grade [16]: 0 (Herbicidal ratio of 5% or lower (almost no effect)); J (Alopecurus myosuroides) herbicidal effect grade [17]: 0 (Herbicidal ratio of 5% or lower (almost no effect)); N (Amaranthus retroflexus) herbicidal effect grade [19]: 0 (Herbicidal ratio of 5% or lower (almost no effect)); G (Setaria viridis) herbicidal effect grade [22]: 3 (Herbicidal ratio of 40% or higher and lower than 70%)
CON=C(C)CC1CC(O)=C(c2c(C)cc(Oc3ccccc3)cc2C)C1=O (stereo not drawn) [6-052] | 5 (Herbicidal ratio of 90% or more (almost completely withered)) | 1 (Herbicidal ratio of 5% or higher and lower than 20%) | 0 (Herbicidal ratio of 5% or lower (almost no effect)) | 0 (Herbicidal ratio of 5% or lower (almost no effect)) | 5 (Herbicidal ratio of 90% or more (almost completely withered)) | 0 (Herbicidal ratio of 5% or lower (almost no effect)) | 0 (Herbicidal ratio of 5% or lower (almost no effect)) | 4 (Herbicidal ratio of 70% or higher and lower than 90%) | 5 (Herbicidal ratio of 90% or more (almost completely withered)) | 5 (Herbicidal ratio of 90% or more (almost completely withered)) | 0 (Herbicidal ratio of 5% or lower (almost no effect)) | 0 (Herbicidal ratio of 5% or lower (almost no effect)) | 0 (Herbicidal ratio of 5% or lower (almost no effect)) | 0 (Herbicidal ratio of 5% or lower (almost no effect)) | 0 (Herbicidal ratio of 5% or lower (almost no effect)) | 0 (Herbicidal ratio of 5% or lower (almost no effect)) | 2 (Herbicidal ratio of 20% or higher and lower than 40%) | 1 (Herbicidal ratio of 5% or higher and lower than 20%) | 0 (Herbicidal ratio of 5% or lower (almost no effect)) | 0 (Herbicidal ratio of 5% or lower (almost no effect)) | N: Amaranthus retroflexus, herbicidal effect grade [19]: 0 (Herbicidal ratio of 5% or lower (almost no effect)); G: Setaria viridis, herbicidal effect grade [22]: 3 (Herbicidal ratio of 40% or higher and lower than 70%)
CON=C(C)CC1CC(O)=C(c2c(C)cc(OC)cc2C)C1=O (stereo not drawn) [6-055] | – | 1 (Herbicidal ratio of 5% or higher and lower than 20%) | – | – | – | – | – | – | – | – | 3 (Herbicidal ratio of 40% or higher and lower than 70%) | 0 (Herbicidal ratio of 5% or lower (almost no effect)) | 0 (Herbicidal ratio of 5% or lower (almost no effect)) | 5 (Herbicidal ratio of 90% or more (almost completely withered)) | 5 (Herbicidal ratio of 90% or more (almost completely withered)) | 0 (Herbicidal ratio of 5% or lower (almost no effect)) | 0 (Herbicidal ratio of 5% or lower (almost no effect)) | 5 (Herbicidal ratio of 90% or more (almost completely withered)) | 0 (Herbicidal ratio of 5% or lower (almost no effect)) | 4 (Herbicidal ratio of 70% or higher and lower than 90%) | H: Echinochloa crus-galli var. crus-galli, herbicidal effect (criteria of Test Example 1) [2]: 5 (Herbicidal ratio of 90% or more (almost completely withered)); N: Amaranthus retroflexus, herbicidal effect (criteria of Test Example 1) [4]: 0 (Herbicidal ratio of 5% or lower (almost no effect)); d: soybean, effect on crop (criteria of Test Example 1) [7]: 3 (Herbicidal ratio of 40% or higher and lower than 70%); b: directly sowed rice plant, effect on crop (criteria of Test Example 1) [9]: 5 (Herbicidal ratio of 90% or more (almost completely withered)); e: wheat, effect on crop (criteria of Test Example 1) [10]: 3 (Herbicidal ratio of 40% or higher and lower than 70%); Q: Galium spurium, herbicidal effect (criteria of Test Example 1) [11]: 3 (Herbicidal ratio of 40% or higher and lower than 70%); J: Alopecurus myosuroides, herbicidal effect (criteria of Test Example 1) [18]: 5 (Herbicidal ratio of 90% or more (almost completely withered)); N: Amaranthus retroflexus, herbicidal effect grade [19]: 0 (Herbicidal ratio of 5% or lower (almost no effect)); G: Setaria viridis, herbicidal effect (criteria of Test Example 1) [20]: 5 (Herbicidal ratio of 90% or more (almost completely withered)); F: Digitaria ciliaris, herbicidal effect (criteria of Test Example 1) [21]: 5 (Herbicidal ratio of 90% or more (almost completely withered)); G: Setaria viridis, herbicidal effect grade [22]: 5 (Herbicidal ratio of 90% or more (almost completely withered))
